The results in this text go back to patent US9920035B2, “Heterocyclic compounds, medicaments containing said compounds, use thereof and processes for the preparation thereof” (Boehringer Ingelheim International GmbH, priority 2011, dated 2018).

SMILES strings stand for the structures.

For this test, the target named is T1, epithelial sodium channel (ENaC) (Mus musculus, UniProt Q61180+Q9WU38+Q9WU39).
T1 construct: Mouse kidney M-1 cells were cultivated in DMEM containing 5% FCS and 5 μM dexamethasone; endogenous in cells; host or cells: mouse kidney M-1 cells
T1 sequence (Q61180 1-699): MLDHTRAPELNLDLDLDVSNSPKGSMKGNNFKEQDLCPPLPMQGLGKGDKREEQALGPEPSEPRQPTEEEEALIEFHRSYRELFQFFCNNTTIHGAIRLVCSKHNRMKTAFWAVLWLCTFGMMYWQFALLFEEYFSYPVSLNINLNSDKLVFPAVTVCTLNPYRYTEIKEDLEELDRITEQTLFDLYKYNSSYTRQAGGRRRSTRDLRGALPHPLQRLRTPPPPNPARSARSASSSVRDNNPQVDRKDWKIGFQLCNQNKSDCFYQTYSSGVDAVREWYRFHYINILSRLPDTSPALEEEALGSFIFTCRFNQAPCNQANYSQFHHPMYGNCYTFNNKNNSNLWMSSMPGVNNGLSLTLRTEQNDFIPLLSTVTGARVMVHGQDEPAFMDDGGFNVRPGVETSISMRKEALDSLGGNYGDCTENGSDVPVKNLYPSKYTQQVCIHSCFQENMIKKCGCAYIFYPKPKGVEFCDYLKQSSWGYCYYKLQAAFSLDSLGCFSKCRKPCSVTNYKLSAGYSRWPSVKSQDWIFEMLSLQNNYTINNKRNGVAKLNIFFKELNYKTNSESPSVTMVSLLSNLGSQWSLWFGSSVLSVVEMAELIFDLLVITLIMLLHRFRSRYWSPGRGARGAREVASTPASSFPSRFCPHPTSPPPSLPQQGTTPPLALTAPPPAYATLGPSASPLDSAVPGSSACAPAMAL
T1 sequence (Q9WU38 1-638): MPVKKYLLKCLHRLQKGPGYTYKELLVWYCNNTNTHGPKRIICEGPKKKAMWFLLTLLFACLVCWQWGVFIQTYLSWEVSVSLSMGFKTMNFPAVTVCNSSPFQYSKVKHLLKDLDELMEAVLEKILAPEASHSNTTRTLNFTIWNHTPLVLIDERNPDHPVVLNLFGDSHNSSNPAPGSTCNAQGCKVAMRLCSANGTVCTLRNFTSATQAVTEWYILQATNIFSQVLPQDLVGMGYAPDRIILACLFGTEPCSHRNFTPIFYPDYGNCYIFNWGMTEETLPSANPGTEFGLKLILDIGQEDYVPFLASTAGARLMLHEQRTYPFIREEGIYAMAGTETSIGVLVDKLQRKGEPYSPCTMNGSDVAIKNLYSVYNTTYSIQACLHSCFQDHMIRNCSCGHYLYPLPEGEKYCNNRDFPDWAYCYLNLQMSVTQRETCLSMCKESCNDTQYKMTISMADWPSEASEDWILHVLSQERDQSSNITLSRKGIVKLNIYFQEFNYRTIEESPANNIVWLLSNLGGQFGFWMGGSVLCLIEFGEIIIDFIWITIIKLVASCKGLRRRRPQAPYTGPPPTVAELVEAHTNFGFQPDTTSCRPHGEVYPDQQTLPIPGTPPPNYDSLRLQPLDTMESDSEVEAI
T1 sequence (Q9WU39 1-655): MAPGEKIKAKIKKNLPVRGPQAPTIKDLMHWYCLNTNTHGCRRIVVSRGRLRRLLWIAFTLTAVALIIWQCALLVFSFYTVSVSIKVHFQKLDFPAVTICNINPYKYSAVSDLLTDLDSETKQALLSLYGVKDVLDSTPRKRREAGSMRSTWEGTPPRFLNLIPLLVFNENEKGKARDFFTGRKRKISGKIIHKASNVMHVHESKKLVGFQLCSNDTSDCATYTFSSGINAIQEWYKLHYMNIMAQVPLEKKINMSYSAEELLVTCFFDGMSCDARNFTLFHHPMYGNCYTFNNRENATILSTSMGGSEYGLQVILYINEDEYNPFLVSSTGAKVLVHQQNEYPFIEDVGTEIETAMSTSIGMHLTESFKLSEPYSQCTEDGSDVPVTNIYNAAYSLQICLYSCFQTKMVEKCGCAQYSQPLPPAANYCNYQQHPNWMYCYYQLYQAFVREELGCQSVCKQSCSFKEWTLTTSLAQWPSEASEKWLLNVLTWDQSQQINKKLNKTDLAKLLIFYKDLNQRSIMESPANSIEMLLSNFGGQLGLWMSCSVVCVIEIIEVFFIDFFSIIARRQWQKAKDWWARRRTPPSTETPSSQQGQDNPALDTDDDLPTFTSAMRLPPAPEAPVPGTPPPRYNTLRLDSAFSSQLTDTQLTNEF
Description: Ussing chamber: inhibition of amiloride sensitive short circuit current (I_sc) in M-1 cells. The test is classed as cell-based. The note with it: Mouse kidney M-1 cells on transwell filters, Ussing chamber at 37° C., compound added to the apical solution. The method, then:
Mouse kidney M-1 cells were cultivated in DMEM containing 5% FCS and 5 μM dexamethasone for 10 to 12 days on polyester transwell filters. Filters were inserted into a teflon-coated well-plate which fit into the in-house ussing chamber system. Prior to measurement the medium of M-1 cells was replaced with Caco-2 transport buffer (Invitrogen, Germany). During measurements, the Ussing chamber temperature was kept at 37° C. Short circuit currents (I_sc) were measured in the voltage-clamp mode using an in-house built amplifier (Boehringer Ingelheim, Biberach) with the software package Lab View for data acquisition and analysis. The transepithelial electrical resistance (TEER) was determined by the application of voltage steps of ±5 mV every 5 sec. Compounds were administered at a final concentration of 3 μM or at increasing concentrations (1-3-10 μM) to the apical solution. At the end of each experiment the amiloride sensitive I_SC was measured by adding 3 μM amiloride to the apical compartment. Results are expressed as inhibition in percent of the amiloride effect or as IC50. Results are listed in tables 1 to 5 and further examples listed above.
Take `CC(C)(C)OC(=O)N1CCC(CNC(N)=NC(=O)c2nc(Cl)c(N)nc2N)(c2ccccc2)CC1` [Example 1.42]: the IC50 was 25 nM.

On to `NCCCNC(=O)N1CCC(CCc2ccccc2)(CNC(N)=NC(=O)c2nc(Cl)c(N)nc2N)CC1` [Example 2.6], for which the IC50 is 28 nM.

With `CN(C)CC(=O)N1CCC(CCc2ccccc2)(CNC(=N)NC(=O)c2nc(Cl)c(N)nc2N)CC1` [Example 1.48], the IC50 is 130 nM.

For `COC(=O)CCC(=O)N1CCC(CNC(N)=NC(=O)c2nc(Cl)c(N)nc2N)(c2ccccc2)CC1` [Example 1.47], it took 29 nM to reach half-maximal inhibition (IC50).

`COCC(=O)N1CCC(CCc2ccccc2)(CNC(N)=NC(=O)c2nc(Cl)c(N)nc2N)CC1` [Example 1.9] came in with an IC50 of 11 nM. Next, `CN(C)CCN1CCC(CCc2ccccc2)(CNC(N)=NC(=O)c2nc(Cl)c(N)nc2N)CC1` [Example 1.32]: 46 nM.

Regarding `NC(=NC(=O)c1nc(Cl)c(N)nc1N)NCC1(CCc2ccccc2)CCN(C(=O)c2ccccc2)CC1` [Example 1.5], the IC50 worked out at 34 nM.

Turning to `CS(=O)(=O)N1CCC(CCc2ccccc2)(CNC(N)=NC(=O)c2nc(Cl)c(N)nc2N)CC1` [Example 1.1], 34 nM corresponded to half-maximal inhibition (IC50). Next, `NCCC(=O)N1CCC(CCc2ccccc2)(CNC(N)=NC(=O)c2nc(Cl)c(N)nc2N)CC1` [Example 2.2]: 19 nM; `NCCNC(=O)N1CCC(CCc2ccccc2)(CNC(N)=NC(=O)c2nc(Cl)c(N)nc2N)CC1` [Example 2.7]: 16 nM; `COC(=O)CN1CCC(CNC(N)=NC(=O)c2nc(Cl)c(N)nc2N)(Cc2ccccc2)CC1` [Example 1.30]: 70 nM.

`C[N+](C)(C)CC(=O)N1CCC(CCc2ccccc2)(CNC(N)=NC(=O)c2nc(Cl)c(N)nc2N)CC1` [Example 1.49] displayed an IC50 of 22 nM. As to `N/C(=N\C(=O)c1nc(Br)c(N)nc1N)NCC1(CCc2ccccc2)CCN(C(=O)CCC(=O)O)CC1` [Example 11, 4-{4-[N′-(3,5-Diamino-6-bromo-pyrazine-2-carbonyl)-guanidinomethyl]-4-phenethyl-piperidin-1-yl}-4-oxo-butyric acid], half-maximal inhibition (IC50) required 502 nM. `C[N+](C)(C)CCCC(=O)N1CCC(CCc2ccccc2)(CNC(N)=NC(=O)c2nc(Cl)c(N)nc2N)CC1` [Example 1.50]: the IC50 was determined as 15 nM. Next, `CCNC(=O)N1CCC(CCc2ccccc2)(CN/C(N)=N/C(=O)c2nc(Cl)c(N)nc2N)CC1` [Example 1.12]: 12 nM; `COC(=O)CCC(=O)N1CCC(CNC(N)=NC(=O)c2nc(Cl)c(N)nc2N)(Cc2ccccc2)CC1` [Example 1.20]: 75 nM.

Compound `N=C(N)NCCC(=O)N1CCC(CCc2ccccc2)(CNC(N)=NC(=O)c2nc(Cl)c(N)nc2N)CC1` [Example 4.1] had an IC50 of 12 nM.

In turn, `COC(=O)CNC(=O)N1CCC(CCc2ccccc2)(CNC(N)=NC(=O)c2nc(Cl)c(N)nc2N)CC1` [Example 1.18] yielded an IC50 of 28 nM. As for `COC(=O)c1ccc(CCC2(CNC(N)=NC(=O)c3nc(Cl)c(N)nc3N)CCNCC2)cc1` [Example 2.1], the IC50 is 394 nM. `NC(=NC(=O)c1nc(Cl)c(N)nc1N)NCC1(CCc2ccccc2)CCN(C(=O)NCCC(=O)O)CC1` [Example 3.2]: the IC50 is 149 nM.

The compound `C[N+]1(C)CCC(CCc2ccccc2)(CNC(N)=NC(=O)c2nc(Cl)c(N)nc2N)CC1` [Example 1.15] registered an IC50 of 91 nM. Next, `COC(=O)c1ccc(CCC2(CNC(N)=NC(=O)c3nc(Cl)c(N)nc3N)CCN(C(=O)OC(C)(C)C)CC2)cc1` [Example 1.17]: 56 nM; `C[N+](C)(C)CCCNC(=O)N1CCC(CCc2ccccc2)(CNC(N)=NC(=O)c2nc(Cl)c(N)nc2N)CC1` [Example 5.1]: 27 nM. Next, `CC(C)(C)OC(=O)NCC(=O)N1CCC(CCc2ccccc2)(CNC(N)=NC(=O)c2nc(Cl)c(N)nc2N)CC1` [Example 1.25]: 18 nM. In the case of `COC(=O)CCNC(=O)N1CCC(CCc2ccccc2)(CNC(N)=NC(=O)c2nc(Cl)c(N)nc2N)CC1` [Example 1.19], half-maximal inhibition (IC50) was put at 24 nM.

As a reminder, the IC50 is the midpoint of a concentration-inhibition curve. A lower IC50 goes with greater potency in that assay.
